The data set in a line: Human HepG2 cell viability assay in 384 well format. Format: toxicity, cell-based. On the set-up: dose 125 nL, time 70.5 hour; concentration not given beside the values. The note with it: HepG2 cells, read-out: Inhibition.
As to `CN(C)CCN1CCOC2(CCN(c3nccs3)CC2)c2ccccc21`, the cytotoxicity at 70.5 h stood at 28.7%.

In the case of `Cc1ccc(C(=O)N2C[C@H](OCC3CCOCC3)[C@H]3OCCC[C@H]32)o1`, the cytotoxicity at 70.5 h stood at 0.644%.

Consider `Clc1ccc(-c2nnc(CNCCn3cccn3)o2)c(Cl)c1`, for which the cytotoxicity at 70.5 h was -6.39%.

Take `COc1ccc(C(C)Nc2nc3c(C)nn(C)c3c(=O)n2C)cc1` (configuration not stated): the cytotoxicity at 70.5 h is -3.89%. On to `CCc1nc2n(n1)CCCC2NC(=O)Nc1cc(OC)ccc1C` (configuration not stated), for which the cytotoxicity at 70.5 h was 3.05%. The figure for `C[C@@H]1CN(C(=O)CCCn2nnc(-c3ccc(F)cc3)n2)C[C@]1(C)O` is 22.7%; for `CCC(CO)N(Cc1cccs1)C(=O)Cc1ccncc1` (configuration not stated) it is -8.11%. As to `CC(=O)c1cccc(NCC(=O)NC(N)=O)c1`, the cytotoxicity at 70.5 h came out at 27.4%.

Turning to `Cc1ccnc(C(NC(=O)c2oc(C)nc2C)C2CC2)n1` (configuration not stated), the cytotoxicity at 70.5 h was -3.47%.

For `NC(=O)NC(=O)C(c1ccccc1)N1CCN(Cc2ccccc2)CC1` (configuration not stated), the cytotoxicity at 70.5 h came to 1.22%. The figure for `Cc1oc(-c2ccc(Cl)cc2)nc1C(=O)NC1=NCCS1` is 11.2%. The figure for `CCCC(C)Sc1nnnn1C1CCOCC1` (configuration not stated) is -12.8%; for `C=Cn1ncc(CN2C[C@@H]3C[C@@H](O)CN3C[C@@H]2Cc2ccccc2)c1C` it is 1.04%; for `Clc1cccc(CNC2CCN(CCc3ccncc3)CC2)c1` it is 0.526%. The figure for `COCCN(Cc1cccnc1)c1nc(C)nc2oc(C)nc12` is -5.28%; for `COCCN1CC(O)CN(C(=O)c2ccc(SC)cc2)CC1=O` (configuration not stated) it is -4.29%.

With `Cc1csc2ncc(-c3ccnc(N4CCN(C)CC4)n3)c(=O)n12`, the cytotoxicity at 70.5 h came to 24.1%. The figure for `COc1ccc(NC(=O)Cn2ccc3c(=O)n(C)ccc32)cc1OC` is -3.38%; for `Cc1cc(N2CCCC(O)(CN(C)C(=O)CCN)C2)c2cnccc2n1` (configuration not stated) it is 26.9%. To `O=C(Nc1cc(C(F)(F)F)c[nH]c1=O)C1CCNCC1` belongs -12.8%. With `N#Cc1c2n(c3c(N)ncnc13)CCCCC2`, the cytotoxicity at 70.5 h turned out to be 16.8%. `Cc1ccccc1NC(=O)c1cncc(C2CCNCC2)n1`: the cytotoxicity at 70.5 h was -4.64%.

As for `O=C(NCCOc1ccc2c(c1)OCO2)N1CCCC(CO)C1` (configuration not stated), the cytotoxicity at 70.5 h is -10%.

With `O=C(C1CC1)N1C[C@H]2CCCN(S(=O)(=O)c3ccc(Cl)s3)[C@H]2C1`, the cytotoxicity at 70.5 h was -0.267%. As to `N#Cc1cccc(OCc2ccoc2C(=O)N2CCCCCC2)c1`, the cytotoxicity at 70.5 h was -2.71%.

In the case of `Cc1nnc2n1CCN(CCCS(=O)(=O)c1ccccc1)C2`, the cytotoxicity at 70.5 h was 0.781%. The figure for `Cc1cc(C)c(CNC(=O)NCc2cc(F)cc(F)c2)c(=O)[nH]1` is -3.54%; for `CSCCC(O)C(=O)N(C)Cc1cnn(-c2ccc(F)cc2)c1` (configuration not stated) it is -3.28%. For the compound `CN1C(=O)C(C)(C)COc2cc(NS(=O)(=O)Cc3ccccc3)ccc21`, the cytotoxicity at 70.5 h worked out at 9.19%.

On to `Cc1nn(C)c(N(C)C)c1CNC(C)c1cccnc1` (configuration not stated), for which the cytotoxicity at 70.5 h was -6.25%. The figure for `COCc1ccccc1C(=O)N1CCCC(n2nc(C)cc2C)C1` (configuration not stated) is 24.9%; for `Cc1noc(C)c1CN1C[C@@H]2COC[C@H](C(=O)N3CCOCC3)[C@@H]2C1` it is -8.43%. To `CN(C)C[C@@H]1OC[C@H]2CN(Cc3ccoc3)CC[C@H]21` belongs -0.512%; to `O=C(Cn1ccc(=O)cc1)N1C[C@H]2CC[C@@H]1CN(c1ncccn1)C2`, -8.59%. The figure for `CCN(Cc1nccn1C)C1CCN(c2ccccc2)C1=O` (configuration not stated) is -2.87%. With `Cc1cnn(CC2CN(CCc3cccs3)CCO2)c1` (configuration not stated), the cytotoxicity at 70.5 h was -2.69%. The figure for `Cc1cc(C)c2c(C(=O)N(C)C)cc(-c3cnc(N)nc3)nc2c1` is -5.25%; for `CCC(=O)NC(Cc1cc(N(C)C)nc(C2CC2)n1)c1ccccc1` (configuration not stated) it is -2.39%. To `CCOCC(=O)N1C[C@H]2CCC[C@@]2(COC)C1` belongs -7.78%; to `CC(C)c1sc(Cl)nc1C(=O)N1CCN(c2ccccc2)CC1`, 28.2%; to `O=C(O)[C@@H]1CN(Cc2ccc3nsnc3c2)C[C@H]1c1ccncc1`, 6.98%. The figure for `O=C(c1cnc2ccccn12)N1CCCC(c2ccn[nH]2)C1` (configuration not stated) is -11.2%; for `O=C(CCn1cncn1)Nc1ccc(F)cc1OCC1CC1` it is -9.3%; for `Cc1nc(CO[C@@H]2CN(Cc3ccc(F)cc3)[C@@H]3COC[C@@H]32)cs1` it is -7.17%. Regarding `COC(=O)CCNC(=O)c1ccc(NC(=O)N(C)CC(C)(C)C)cc1`, the cytotoxicity at 70.5 h was -6.05%.

Take `COc1ccnc(N2CCN(C(=O)Cc3ccc(C)s3)CC2)n1`: the cytotoxicity at 70.5 h is -5.58%. The figure for `CCC1CN(Cc2nnc(C3CC3)o2)CCC(=O)N1Cc1ccccc1` (configuration not stated) is 20.4%; for `COCCOc1ccc(NC(=O)N2CCCC2c2ccncc2)cn1` (configuration not stated) it is -11.8%. The figure for `Cn1cnnc1CN1CCC2(CCC(=O)N(Cc3ccccc3)C2)CC1` is -4.83%; for `O=C(c1ncn2c(C3CCN(CC4CC4)CC3)ccnc12)N1CCCC1` it is 0.745%.

For the compound `N#Cc1ccccc1N1CCCN(C(=O)CCc2ccco2)CC1`, the cytotoxicity at 70.5 h is -5.97%. To `NC(=O)c1ccc(CN2CCCC(N3CCCCCC3)C2)cc1` (configuration not stated) belongs 1.67%; to `O=C(CN1CCCC1Cn1cncn1)NCCOc1ccc(F)cc1` (configuration not stated), -0.118%; to `COc1ccc(CN2C[C@@H]3CN(C(=O)c4ccsc4)C[C@@H]3C2=O)cc1`, -4.99%. `CCc1ccc(CN2CCC3(CC(C(=O)NCC(C)C)=NO3)C2)o1` (configuration not stated): the cytotoxicity at 70.5 h is -7.77%. To `COc1ccc(C(CC(=O)O)NC(=O)CCc2cccs2)cc1OC` (configuration not stated) belongs 4.75%; to `Cc1cc(C(=O)NCCc2c(C)nn(C)c2C)nc(N2CCCCC2)n1`, 20.6%. For `CC(C(N)=O)N1CCN(c2ncc(Cl)cn2)CC1` (configuration not stated), the cytotoxicity at 70.5 h was -5.36%. To `COCc1ncc(CN2CCC3(CCNC(=O)CC3)CC2)cn1` belongs -5.72%; to `CSc1nccc(N2CCN(C)C3(CCNC(=O)CC3)C2)n1` (configuration not stated), -5.4%; to `COc1cc2c(cc1OC)S(=O)(=O)N(Cc1ccc(C)cc1)C2=O`, -14.5%. To `Cc1cc(C(=O)N2CCCCC2C)ccc1NC(=O)N1CCOCC1` (configuration not stated) belongs -6.59%; to `COc1cccc(CN(C)C(=O)c2ccc(NC(C)=O)s2)c1OC`, -62.7%. For `CNC(=O)[C@H]1C[C@@H]2CN(Cc3csc(C)n3)C[C@@H]2N1S(C)(=O)=O`, the cytotoxicity at 70.5 h was determined as 27.8%. To `Cc1nc(CCNC(=O)NC(C)c2ccc3c(c2)OCCO3)cs1` (configuration not stated) belongs -3.72%; to `O=C(CN1CCSC2(CCCCC2)C1)NCC(F)(F)F`, -10.8%. The figure for `Cc1ccc(CN2CCn3cc(CN(C)Cc4ccco4)nc3C2)o1` is 0.0869%; for `CS(=O)(=O)NC[C@]12COC[C@H]1CN(C(=O)C1CC=CC1)C2` it is -3.37%.

As for `CN(Cc1ccco1)C(=O)CN1CCCC1c1cccs1` (configuration not stated), the cytotoxicity at 70.5 h came to 24.6%. Regarding `O=C(Nc1cccnc1)[C@H]1C[C@@H]2CN(Cc3ccc(F)cc3)C[C@H]1O2`, the cytotoxicity at 70.5 h is -7.11%. The figure for `O[C@@]1(CNCCOc2ccccc2)CCCN2CCCC[C@@H]21` is 28%; for `CCc1noc(CCC(=O)N2CCC(c3ccn[nH]3)C2)n1` (configuration not stated) it is 17.8%; for `COc1cc2nc(C)n(CC(=O)NCC(C)C)c(=O)c2cc1OC` it is -15.9%. To `CC(C)CNC(=O)CSC1CCc2ccccc2NC1=O` (configuration not stated) belongs -15.8%; to `NC(=O)c1csc(C(=O)N2CCCCC2Cn2cccn2)c1` (configuration not stated), -10.3%.

Regarding `O=C(Cn1c(=O)nc2n1C(=O)N(c1ccccc1)C2)Nc1ccccc1`, the cytotoxicity at 70.5 h is -7.97%. For `COc1ccc(CCNc2cc(-c3nc(C)no3)ccn2)cc1OC`, the cytotoxicity at 70.5 h is -3.44%. The figure for `CC(C)n1ccnc1CN1CCCN(C(=O)c2cnc[nH]2)CC1` is -1.35%; for `CCC(NCCn1cccn1)C(=O)Nc1cc(C)on1` (configuration not stated) it is 24.9%; for `CC(C)N1CCC(Cc2cc(-c3ccccc3C(=O)O)ncn2)CC1` it is 16.5%. The figure for `NC(=O)c1nc2c(s1)CCN(C(=O)Nc1ccccc1)CC2` is 9.18%.

On to `O=C(CCCc1cn[nH]c1)N1C[C@@H](CN2CCCCCC2)[C@@H](CO)C1`, for which the cytotoxicity at 70.5 h was -6.07%. The figure for `CC(C)CN1CCC2(CC1)CN(C(=O)C(C)C)C2` is -9.29%; for `Cn1c(N)nnc1SC1CCCN(c2ccccc2)C1=O` (configuration not stated) it is -1%; for `Cc1cc(CN(C)C(=O)c2ccc(OC(C)C)nc2)no1` it is 20%. The figure for `NC(=O)C1CCN(CCc2ccc(NCc3cscn3)cc2)CC1` is -12.5%; for `Cc1cnn(CC2CCCN2CCCS(=O)(=O)N(C)C)c1` (configuration not stated) it is 2.72%. To `CCN(CC)S(=O)(=O)N1CCCC1CC(=O)c1cccs1` (configuration not stated) belongs -4.6%; to `O=C(NCc1cccs1)c1nc2c(o1)CN(c1ncccn1)C2`, -6.55%; to `O=C(CC1=CCCCC1)Nc1ccc(CN2C(=O)CCC2=O)cc1`, -3.73%.

For the compound `COc1cc(Oc2cnc3ccccc3n2)ccc1CN1CCCC1`, the cytotoxicity at 70.5 h is -3.39%. To `CCC(C)C(=O)N(C)Cc1cc(F)ccc1N1CCC(OC)CC1` (configuration not stated) belongs -10.5%; to `COc1ncc(-c2nccn2C(C)CCn2cccn2)cn1` (configuration not stated), 2.54%; to `CCc1cnc(CN(C)C2CCN(CC(=O)Nc3nccs3)C2)o1` (configuration not stated), 23%.

On to `Cc1ccc(CN2CC[C@H]3CO[C@H](CN4CCCC4)[C@H]3C2)o1`, for which the cytotoxicity at 70.5 h was -8.76%. The figure for `O=C(C[S+]([O-])Cc1ccc(F)cc1Cl)NC1CCCC1` (configuration not stated) is -6.82%. The figure for `CNC(=O)Cc1ccccc1NC(=O)C1CCCC1` is 29.2%.

These data come from ChEMBL document CHEMBL3507680, “University of Dundee, Gates Library screen for HepG2 cell viability”.
